Measurements reported in patent publication US10399971B2, “Compound for treating or preventing hyperuricemia or gout” (JIANGSU ATOM BIOSCIENCE AND PHARMACEUTICAL CO., LTD., priority 2015, dated 2019).

Tests used:
[1] = Acute toxicity of single oral dose in SD rats; settings: for Weight gain rate (%): 14 day compared with 0 day
hyperuricemia mice = assay: Uric acid excretion test in hyperuricemia mice; assay type: in vivo, Kunming mice; settings: 15 mg/kg oral
Procedure: Species: Kingming mice (Clean Level); body weights: 25 to 30 g; ages: 4 to 5 weeks; sex: male. These mice were purchased from Shanghai SLAC Laboratory Animal Co., Ltd. Certificate No.: SCXK (HU) 2012-2002. Animal quality certificate number: 2015000522173.
A certain amount of adenine and yeast extract powder was weighted and a certain amount of double distilled water was added. The mixture was stirred at about 60° C. for 40 min to give a suspension, which the concentration of yeast extract is 0.6 g/mL and the concentration of adenine is 12 mg/mL.
A suspension of 20 mg/mL potassium oxonate was prepared by mixing a certain amount of potassium oxonate with 0.5% CMC-Na solution before use.
Male Kunming mice were randomly divided into four groups: blank control group, model group, compound 74 group, and benzbromarone group. Each group has six mice. All mice fasted 2 to 3 h before use. The model group, benzbromarone group, and compound 74 group were orally given a suspension of yeast extract and adenine prepared above to reach the final dosage of 10 g/kg (body weight) of yeast extract and 200 mg/kg (body weight) of adenine, respectively. The blank control group was only given same volume of normal saline orally. After 2.5 h, all mice in compound 74 group and benzbromarone group were given 10 mL/kg of suspension of compound 74 (1.5 mg/mL) and 10 mL/kg of suspension of benzbromarone (1.5 mg/mL), respectively. The blank control group and model group were orally given same volume of 0.5% CMC-Na solution. All animals were treated in the same way for seven days by using administration methods described above. On the last day, after administration of a suspension of yeast extract and adenine for the model group, compound 74 group, and benzbromarone group, all mice in these three groups were given 12.5 mL/kg of potassium oxonate (20 mg/mL) by i.p. The blank control was only given same volume of 0.5% CMC-Na solution by i.p. After 30 min, compound 74 and benzbromarone were administrated orally to the mice at same dosages as above in compound 74 group and benzbromarone group, respectively. The blank control group and model group were orally given same volume of 0.5% CMC-Na solution.
Collection of urine samples: All mice were placed in metabolic cages with normal diet individually after giving test compounds on the last day. 24 h urine was collected and the urine volume was measured. The urine was centrifugated at 3000 rpm for 20 min and the supernatant was collected.
Detection of the concentration of uric acid of mice urine samples: uric acid concentration in samples was detected by using uric acid assay kit (phosphotungstic acid method) followed the procedures described in the instruction.

hURAT1 = molecular target: T1, hURAT1 (Homo sapiens, UniProt Q96S37); assay: Inhibition assay of uric acid transport in HEK293-hURAT1 transfection cell line; assay type: cell-based; settings: 500 nM; HEK293-hURAT1 transfection cell line; 14C-uric acid; average of three tests; 0.5 µM
T1 sequence (Q96S37 1-553): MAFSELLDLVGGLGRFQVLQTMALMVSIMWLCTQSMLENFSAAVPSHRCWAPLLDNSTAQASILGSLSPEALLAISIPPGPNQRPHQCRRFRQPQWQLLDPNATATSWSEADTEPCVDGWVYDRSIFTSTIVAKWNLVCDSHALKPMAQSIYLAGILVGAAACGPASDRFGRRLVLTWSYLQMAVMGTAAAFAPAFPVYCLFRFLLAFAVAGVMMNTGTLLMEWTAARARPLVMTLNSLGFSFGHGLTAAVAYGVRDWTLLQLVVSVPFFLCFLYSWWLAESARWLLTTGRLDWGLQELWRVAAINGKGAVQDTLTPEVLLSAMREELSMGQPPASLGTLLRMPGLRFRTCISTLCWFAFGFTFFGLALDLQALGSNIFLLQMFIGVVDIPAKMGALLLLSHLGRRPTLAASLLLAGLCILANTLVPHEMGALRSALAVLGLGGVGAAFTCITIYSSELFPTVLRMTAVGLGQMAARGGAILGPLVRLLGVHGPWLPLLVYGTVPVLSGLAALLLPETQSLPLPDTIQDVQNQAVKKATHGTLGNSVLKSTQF
Procedure: 2.1 Construction of a HEK293 stable cell line with high expression of hURAT1: The plasmid pCMV6-hURAT1 was transfected into HEK293 cells, then the stable strain was obtained by the G418 (final concentration 500 μg/mL) resistance screening, which is the high expression of hURAT1 transporter membrane protein.
2.2 To a coated 24-well plate was added 200 μL of 0.1 mg/mL poly-lysine per well and the plate was left overnight. Poly-lysine was removed from wells. The wells were cleaned thoroughly with aseptic water and dried for use.
2.3 To the above coated 24 well plate was added HEK293-hURAT1 stable cells (2×10^5 cells per well). The cells was cultured at 37° C. under 5% CO2 for 3 days.
The solution was fully mixed to give HBSS buffer (pH value: 7.4). The buffer was stored at −20° C.
2.5 The HBSS buffer was warmed to 37° C. in a water bath. Washed cells with HBSS twice, added 160 μL of HBSS and 20 μL test compound per well. The final concentration of tested compound per well is 500 nM. The blank control well contains only 180 μL of HBSS without tested compound. The plate was placed at room temperature for 30 min.
2.6 To each well was added 20 μL of 50 μM ^14C-Uric acid. The plate was placed at room temperature for 20 min.
2.7 The solution in each well was removed and the cells in each well were washed with pre-cooled HBSS buffer. To each well was added 0.2 M NaOH to dissolve the cells. The solution containing cell fragments was collected and the right amount of scintillation liquid was added.
The formula for calculating the inhibitory rate of uric acid transport for compounds was shown as below: […]

[2] = female SD rats (n=5), 74 at 5.0 g/kg, BBR at 0.14 g/kg
[3] = male SD rats (n=5), 74 at 5.0 g/kg, BBR at 0.14 g/kg

## CCc1nc2ccccn2c1C(=O)c1cc(Br)c(O)c(C#N)c1 [Compound 74, 3-bromo-5-(2-ethylimidazo[1,2-a]pyridine-3-carbonyl)-2-hydroxybenzonitrile hydrogen chloride]
[1]; SD rats, single oral dose, 74 at 5.0 g/kg, BBR at 0.14 g/kg, 10 rats per group, 14 days observation
  Death rate: 0/10
[1]; [2]
  Weight 0 day (X ± SD): 135.94 ± 5.62 g
  Weight 7 day (X ± SD): 183.02 ± 11.10 g
  Weight 14 day (X ± SD): 208.04 ± 11.90 g
[1]; female SD rats (n=5)
  Weight gain rate (%): +53.0%
[1]; [3]
  Weight 0 day (X ± SD): 149.06 ± 5.95 g
  Weight 7 day (X ± SD): 204.04 ± 21.69 g
  Weight 14 day (X ± SD): 258.12 ± 17.65 g
[1]; male SD rats (n=5)
  Weight gain rate (%): +73.2%
[1]; pre-experiment, compound 74 at 5 g/kg (highest dose), benzbromarone at 0.14 g/kg
  death of rats in pre-experiment of acute toxicity: did not cause death
Hyperuricemia mice; increase over model group
  uric acid excretion increased compared with the model group: about 46.77%
Hyperuricemia mice; model group set to 100%
  Changes of uric acid excretion (compared with model group, %): 146.77%
Hyperuricemia mice; seven days, 6 mice
  Uric acid in urine for 24 h, ±SD: 15.69 ± 1.53 mmol
hURAT1
  Inhibitory rates of uric acid transport, ±SD (%): 62.75 ± 5.73%
